Tests used:
[1] = molecular target: T1, RIPK4 (Homo sapiens, UniProt P57078); assay: kinome scan; format: binding; details: 10 µM
T1 construct: purchased DiscoverX (KINOMEscan)

[2] = molecular target: T2, SLK (Homo sapiens, UniProt Q9H2G2); assay: kinome scan; format: binding; details: 10 µM
T2 construct: purchased DiscoverX (KINOMEscan)

[3] = molecular target: T3, TGFBR1 (Homo sapiens, UniProt P36897); assay: kinome scan; format: binding; details: 10 µM
T3 construct: purchased DiscoverX (KINOMEscan)

[4] = molecular target: T4, HIPK1 (Homo sapiens, UniProt Q86Z02); assay: kinome scan; format: binding; details: 10 µM
T4 construct: purchased DiscoverX (KINOMEscan)

[5] = molecular target: T5, GCN2(Kin.Dom.2S808G) (Homo sapiens, UniProt Q9P2K8, S808G); assay: kinome scan; format: binding; details: 10 µM
T5 construct: GCN2(Kin.Dom.2S808G); purchased DiscoverX (KINOMEscan)

[6] = molecular target: T6, NEK6 (Homo sapiens, UniProt Q9HC98); assay: kinome scan; format: binding; details: 10 µM
T6 construct: purchased DiscoverX (KINOMEscan)

[7] = molecular target: T7, FLT3(N841I) (Homo sapiens, UniProt P36888, N841I); assay: kinome scan; format: binding; details: 10 µM
T7 construct: purchased DiscoverX (KINOMEscan)

[8] = molecular target: T8, PIK3CA (Homo sapiens, UniProt P42336); assay: kinome scan; format: binding; details: 10 µM
T8 construct: purchased DiscoverX (KINOMEscan)

[9] = molecular target: Abelson (Abl) (Homo sapiens, UniProt P00519); assay: kinome scan; format: binding; set-up: T7 phage fusion (kinase-tagged phage); purchased DiscoverX (Ambit Biosciences); host or cells: BL21-derived E. coli (T7 phage); details: read-out: Kinome scan (% of control at 10 µM)
Procedure: The kinome scan analysis was performed using the DiscoverX platform (www.discoverx.com). Briefly, T7 kinase-tagged phage strains are grown in parallel in 24-well or 96-well blocks in a BL21-derived E. coli host for 90 min until lysis. Lysates are centrifuged at 6,000 x g and filtered with a 0.2 µm filter to remove cell debris. Streptavidin-coated magnetic beads are treated with biotinylated kinase ligands for 30 min at room temperature to generate the affinity resin. Bound beads are blocked with excess biotin and washed with blocking buffer (SeaBlock (Pierce), 1% BSA, 0.05% Tween 20, and 1 mM DTT) to remove unbound ligand and reduce nonspecific phage binding. […] The final concentration of test compound is 10 µM. Assay plates are incubated at room temperature with shaking for 1 h. Affinity beads are treated four times with washing buffer (1X PBS, 0.05% Tween 20, and 1 mM DTT) to remove unbound phage. […] Q RT PCR is used to measure the amount of phage in each eluate (which is proportional to the amount of kinase bound). […]
Hits are identified by an ultra-sensitive quantitative PCR detecting the specific DNA tag linked to each kinase (Supplementary Figure S2). The drug is used at a concentration of 10 µM and results are expressed as the percentage of signal (kinase PCR detection) with respect to DMSO control conditions. […]

[10] = system: CGR8EF1αS,RLuc-Tα1,FLuc cells; assay: neural differentiation, Dual Luciferase Reporter Assay (FLuc/RLuc); format: cell-based, mouse; details: 72 h, normalized to DMSO
Procedure: The CGR8 mouse PSC were cultured as described ([Suter et al., 2009]). For neural induction, CGR8 cells were plated in 96-well plates at a density of 10,000 cells/cm^2 on gelatine-coated cell culture plates, in differentiation medium [BHK-21 medium supplemented with 20% foetal calf serum (Thermofisher), L-glutamine 2 mM (Thermofisher), non-essential amino acids (1X, Thermofisher), sodium pyruvate 1 mM (Thermofisher), penicillin/streptomycin 50 U/ml (Thermofisher)]. CGR8EF1αS,RLuc-Tα1,FLuc cells were described in ([Suter et al., 2009]) and were cultured as described above. Luminescence assays were directly performed in 96-well plates with the Dual Luciferase Reporter Assay System (Promega) according to the manufacturer’s instructions. Luminescence was measured with the SpectraMax L Microplate luminometer (Molecular Devices). Cell viability in the wells was measured by the addition of propidium iodide 1 µg/ml in 100 µL of PBS and fluorescence was assessed in each well using a FluoStar Optima reader (Pharmaceutical Technology Group at the University of Geneva).
The CGR8 PSC line was stably transduced with a dual promoter/reporter gene construct containing a ubiquitous promoter (EF1αS) controlling the expression of Renilla Luciferase (RLuc) and also an early neural-specific promoter (Tα1), controlling the expression of Firefly Luciferase (FLuc). […]

[11] = molecular target: T9, FGFR4 (Homo sapiens, UniProt P22455); assay: kinome scan; format: binding; details: 10 µM
T9 construct: purchased DiscoverX (KINOMEscan)

[12] = molecular target: T10, PLK1 (Homo sapiens, UniProt P53350); assay: kinome scan; format: binding; details: 10 µM
T10 construct: purchased DiscoverX (KINOMEscan)

[13] = molecular target: T11, SRC (Homo sapiens, UniProt P12931); assay: kinome scan; format: binding; details: 10 µM
T11 construct: purchased DiscoverX (KINOMEscan)

[14] = molecular target: T12, MINK (Homo sapiens, UniProt Q8N4C8); assay: kinome scan; format: binding; details: 10 µM
T12 construct: purchased DiscoverX (KINOMEscan)

[15] = molecular target: T13, EPHB3 (Homo sapiens, UniProt P54753); assay: kinome scan; format: binding; details: 10 µM
T13 construct: purchased DiscoverX (KINOMEscan)

[16] = molecular target: T14, MET(M1250T) (Homo sapiens, UniProt P08581, M1250T); assay: kinome scan; format: binding; details: 10 µM
T14 construct: purchased DiscoverX (KINOMEscan)

[17] = molecular target: T15, STK33 (Homo sapiens, UniProt Q9BYT3); assay: kinome scan; format: binding; details: 10 µM
T15 construct: purchased DiscoverX (KINOMEscan)

[18] = molecular target: T16, ABL1(H396P)-nonphosphorylated (Homo sapiens, UniProt P00519, H396P); assay: kinome scan; format: binding; details: 10 µM
T16 construct: purchased DiscoverX (KINOMEscan)

[19] = system: CGR8 PSC; assay: ATP quantification (ATPlite), cell proliferation/viability; format: cell-based, mouse; details: PSC exposed for three days
Procedure: Cell viability was measured in PSC by using the ATPlite Luminescence Assay System (Perkin Elmer). PSC were plated in gelatine-coated 96-well plates at a density of 10,000 cells-cm^2 in their standard medium. At different time points, the substrate for emission of luminescence in the presence of ATP was added according to the manufacturer’s instructions. Luminescence was measured with the SpectraMax L Microplate Luminometer (Molecular Devices).
The effects of the drug on proliferation or differentiation was next investigated in quantitative assays.

[20] = system: Rat pregnane X receptor (rPXR) signaling pathway; set-up: method as in CHEMBL2114797; details: reported activity, data mining; ref CHEMBL2114797; cited from earlier work
[21] = molecular target: T17, TXK (Homo sapiens, UniProt P42681); assay: kinome scan; format: binding; details: 10 µM
T17 construct: purchased DiscoverX (KINOMEscan)

[22] = molecular target: T18, AKT1 (Homo sapiens, UniProt P31749); assay: kinome scan; format: binding; details: 10 µM
T18 construct: purchased DiscoverX (KINOMEscan)

[23] = molecular target: T19, JNK2 (Homo sapiens, UniProt P45984); assay: kinome scan; format: binding; details: 10 µM
T19 construct: purchased DiscoverX (KINOMEscan)

[24] = molecular target: T20, ZAK (Homo sapiens, UniProt Q9NYL2); assay: kinome scan; format: binding; details: 10 µM
T20 construct: purchased DiscoverX (KINOMEscan)

[25] = molecular target: T21, CAMK1 (Homo sapiens, UniProt Q14012); assay: kinome scan; format: binding; details: 10 µM
T21 construct: purchased DiscoverX (KINOMEscan)

[26] = system: Estrogen receptor alpha signaling; set-up: method as in CHEMBL1794542; details: reported activity, data mining; ref CHEMBL1794542; cited from earlier work

T8 sequence (P42336 whole entry): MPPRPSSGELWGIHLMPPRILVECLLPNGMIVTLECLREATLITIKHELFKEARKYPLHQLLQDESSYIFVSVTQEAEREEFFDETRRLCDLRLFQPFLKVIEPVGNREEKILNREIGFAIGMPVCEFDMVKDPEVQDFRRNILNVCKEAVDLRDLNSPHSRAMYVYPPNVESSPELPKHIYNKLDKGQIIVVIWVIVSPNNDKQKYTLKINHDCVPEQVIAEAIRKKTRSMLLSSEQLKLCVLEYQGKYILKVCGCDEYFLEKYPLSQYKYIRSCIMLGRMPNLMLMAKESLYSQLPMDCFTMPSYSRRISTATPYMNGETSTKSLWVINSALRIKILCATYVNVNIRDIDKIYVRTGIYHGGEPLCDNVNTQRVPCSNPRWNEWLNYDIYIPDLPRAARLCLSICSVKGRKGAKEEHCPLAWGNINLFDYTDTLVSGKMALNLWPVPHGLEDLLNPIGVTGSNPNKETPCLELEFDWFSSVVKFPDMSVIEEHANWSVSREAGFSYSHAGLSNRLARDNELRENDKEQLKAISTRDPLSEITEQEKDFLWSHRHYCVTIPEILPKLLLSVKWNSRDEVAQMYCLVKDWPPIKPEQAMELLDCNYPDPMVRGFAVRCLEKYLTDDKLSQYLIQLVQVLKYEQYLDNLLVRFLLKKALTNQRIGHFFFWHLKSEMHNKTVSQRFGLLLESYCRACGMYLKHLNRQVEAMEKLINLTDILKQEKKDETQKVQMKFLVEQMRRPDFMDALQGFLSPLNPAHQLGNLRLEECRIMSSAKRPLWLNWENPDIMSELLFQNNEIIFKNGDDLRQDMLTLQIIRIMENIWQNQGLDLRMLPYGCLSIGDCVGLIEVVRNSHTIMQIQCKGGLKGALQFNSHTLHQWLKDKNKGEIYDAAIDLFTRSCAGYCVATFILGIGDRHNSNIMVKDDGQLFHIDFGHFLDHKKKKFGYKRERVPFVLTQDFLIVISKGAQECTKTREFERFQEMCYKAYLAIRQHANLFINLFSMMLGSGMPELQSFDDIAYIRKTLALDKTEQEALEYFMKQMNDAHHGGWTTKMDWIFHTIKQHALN
T2 sequence (Q9H2G2 whole entry): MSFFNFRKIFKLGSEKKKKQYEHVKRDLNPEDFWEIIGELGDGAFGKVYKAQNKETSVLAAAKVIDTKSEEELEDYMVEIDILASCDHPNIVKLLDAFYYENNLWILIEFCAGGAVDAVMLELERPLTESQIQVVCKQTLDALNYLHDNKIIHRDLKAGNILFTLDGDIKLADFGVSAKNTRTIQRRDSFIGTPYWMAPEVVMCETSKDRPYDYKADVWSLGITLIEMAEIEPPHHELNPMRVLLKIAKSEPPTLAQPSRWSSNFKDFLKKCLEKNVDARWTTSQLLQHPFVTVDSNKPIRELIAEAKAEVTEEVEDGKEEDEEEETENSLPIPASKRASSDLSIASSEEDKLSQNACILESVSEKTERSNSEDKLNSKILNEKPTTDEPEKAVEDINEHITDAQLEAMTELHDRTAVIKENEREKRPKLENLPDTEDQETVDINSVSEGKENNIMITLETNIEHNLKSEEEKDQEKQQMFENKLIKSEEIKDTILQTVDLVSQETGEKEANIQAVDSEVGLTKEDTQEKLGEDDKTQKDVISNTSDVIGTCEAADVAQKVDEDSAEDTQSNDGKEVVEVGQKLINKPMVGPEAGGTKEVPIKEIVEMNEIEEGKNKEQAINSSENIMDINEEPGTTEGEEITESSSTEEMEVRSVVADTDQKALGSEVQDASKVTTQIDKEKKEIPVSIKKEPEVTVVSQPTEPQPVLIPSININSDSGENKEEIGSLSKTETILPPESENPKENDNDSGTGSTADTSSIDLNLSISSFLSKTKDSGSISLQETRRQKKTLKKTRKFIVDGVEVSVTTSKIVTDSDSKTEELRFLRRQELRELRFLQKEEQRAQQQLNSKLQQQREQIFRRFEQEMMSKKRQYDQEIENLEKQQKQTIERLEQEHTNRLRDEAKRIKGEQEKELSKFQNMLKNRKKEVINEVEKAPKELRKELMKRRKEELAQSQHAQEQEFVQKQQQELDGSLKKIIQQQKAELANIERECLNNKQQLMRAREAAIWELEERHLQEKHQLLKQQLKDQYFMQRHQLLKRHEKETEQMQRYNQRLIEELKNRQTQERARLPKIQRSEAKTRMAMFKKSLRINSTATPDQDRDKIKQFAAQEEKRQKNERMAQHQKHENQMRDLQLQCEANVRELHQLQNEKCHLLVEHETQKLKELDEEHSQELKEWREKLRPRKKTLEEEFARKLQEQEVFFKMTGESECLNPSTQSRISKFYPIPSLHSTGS
T9 sequence (P22455 22-802): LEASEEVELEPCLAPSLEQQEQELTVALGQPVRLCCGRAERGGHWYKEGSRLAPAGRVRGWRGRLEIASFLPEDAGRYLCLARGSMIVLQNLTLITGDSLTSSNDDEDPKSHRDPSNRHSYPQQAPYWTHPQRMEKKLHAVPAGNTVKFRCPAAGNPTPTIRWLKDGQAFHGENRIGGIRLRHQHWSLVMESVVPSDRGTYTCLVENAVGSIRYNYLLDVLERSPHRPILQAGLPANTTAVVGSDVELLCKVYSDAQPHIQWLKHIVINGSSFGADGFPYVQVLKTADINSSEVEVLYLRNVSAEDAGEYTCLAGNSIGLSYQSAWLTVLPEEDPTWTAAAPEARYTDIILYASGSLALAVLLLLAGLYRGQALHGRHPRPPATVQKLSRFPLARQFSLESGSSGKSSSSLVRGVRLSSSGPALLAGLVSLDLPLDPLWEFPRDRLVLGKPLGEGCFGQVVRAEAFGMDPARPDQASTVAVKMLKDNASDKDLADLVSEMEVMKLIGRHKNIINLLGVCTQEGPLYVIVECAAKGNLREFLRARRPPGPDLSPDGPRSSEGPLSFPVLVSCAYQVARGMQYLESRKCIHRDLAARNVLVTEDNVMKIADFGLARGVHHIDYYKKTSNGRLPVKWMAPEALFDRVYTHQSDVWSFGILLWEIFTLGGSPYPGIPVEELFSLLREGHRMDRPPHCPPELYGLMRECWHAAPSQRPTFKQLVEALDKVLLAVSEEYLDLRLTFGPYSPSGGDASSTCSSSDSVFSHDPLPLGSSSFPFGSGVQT
T21 sequence (Q14012 whole entry): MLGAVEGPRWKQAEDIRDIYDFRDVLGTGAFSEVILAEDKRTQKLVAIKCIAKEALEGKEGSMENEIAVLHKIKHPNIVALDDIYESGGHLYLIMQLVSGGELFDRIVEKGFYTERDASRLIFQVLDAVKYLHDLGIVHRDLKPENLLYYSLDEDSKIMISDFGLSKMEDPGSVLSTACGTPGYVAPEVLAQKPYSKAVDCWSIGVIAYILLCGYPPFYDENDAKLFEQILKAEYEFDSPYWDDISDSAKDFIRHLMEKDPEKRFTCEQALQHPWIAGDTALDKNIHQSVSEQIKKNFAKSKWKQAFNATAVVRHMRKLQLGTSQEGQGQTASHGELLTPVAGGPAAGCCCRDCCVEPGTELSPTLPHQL
T20 sequence (Q9NYL2 whole entry): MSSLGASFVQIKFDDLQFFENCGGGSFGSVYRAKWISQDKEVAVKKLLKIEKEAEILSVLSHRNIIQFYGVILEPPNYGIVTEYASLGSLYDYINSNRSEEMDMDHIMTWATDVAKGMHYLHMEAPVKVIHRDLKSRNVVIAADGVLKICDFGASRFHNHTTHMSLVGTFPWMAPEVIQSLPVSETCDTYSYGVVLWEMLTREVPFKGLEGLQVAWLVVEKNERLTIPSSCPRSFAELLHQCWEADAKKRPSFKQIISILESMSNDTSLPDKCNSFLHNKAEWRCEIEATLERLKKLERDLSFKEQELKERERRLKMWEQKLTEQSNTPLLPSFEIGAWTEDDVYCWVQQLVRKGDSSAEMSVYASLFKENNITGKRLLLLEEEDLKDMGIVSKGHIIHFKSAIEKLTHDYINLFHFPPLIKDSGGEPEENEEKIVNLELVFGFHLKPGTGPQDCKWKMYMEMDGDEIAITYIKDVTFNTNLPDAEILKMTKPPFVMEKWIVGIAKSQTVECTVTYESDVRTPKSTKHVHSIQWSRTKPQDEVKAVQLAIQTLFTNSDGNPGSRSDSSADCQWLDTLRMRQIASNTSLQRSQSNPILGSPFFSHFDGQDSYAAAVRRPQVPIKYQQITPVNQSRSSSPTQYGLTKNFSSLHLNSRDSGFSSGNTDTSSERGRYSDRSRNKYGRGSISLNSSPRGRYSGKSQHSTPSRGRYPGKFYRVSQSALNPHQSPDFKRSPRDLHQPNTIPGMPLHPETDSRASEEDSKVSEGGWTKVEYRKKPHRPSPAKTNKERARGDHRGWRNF
T6 sequence (Q9HC98 whole entry): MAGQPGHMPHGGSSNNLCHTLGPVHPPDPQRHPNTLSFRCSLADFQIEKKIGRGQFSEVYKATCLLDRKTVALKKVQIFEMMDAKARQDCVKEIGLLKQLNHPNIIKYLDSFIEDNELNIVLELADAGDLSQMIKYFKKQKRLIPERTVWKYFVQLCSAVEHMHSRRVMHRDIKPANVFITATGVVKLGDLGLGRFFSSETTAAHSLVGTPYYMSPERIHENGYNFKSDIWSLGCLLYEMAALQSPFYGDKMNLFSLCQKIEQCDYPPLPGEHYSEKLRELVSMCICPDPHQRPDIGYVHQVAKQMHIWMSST
T18 sequence (P31749 whole entry): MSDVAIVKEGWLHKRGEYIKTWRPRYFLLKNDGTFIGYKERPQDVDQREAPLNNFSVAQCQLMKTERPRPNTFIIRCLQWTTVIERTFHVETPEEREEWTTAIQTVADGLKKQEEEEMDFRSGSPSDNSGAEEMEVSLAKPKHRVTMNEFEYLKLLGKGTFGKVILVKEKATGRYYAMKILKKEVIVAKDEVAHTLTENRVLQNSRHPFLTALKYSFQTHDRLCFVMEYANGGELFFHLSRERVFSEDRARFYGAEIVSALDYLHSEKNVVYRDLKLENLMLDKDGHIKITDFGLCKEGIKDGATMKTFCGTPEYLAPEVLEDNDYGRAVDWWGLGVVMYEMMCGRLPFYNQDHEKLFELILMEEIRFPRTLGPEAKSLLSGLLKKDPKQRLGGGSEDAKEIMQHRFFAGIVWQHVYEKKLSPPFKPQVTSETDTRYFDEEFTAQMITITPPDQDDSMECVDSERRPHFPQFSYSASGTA

Work on `Nc1ccc(N=Nc2ccccc2)c(N)n1` [phenazopyridine, 2,6-diamino-3-(phenylazo)pyridine] yielded a kinase inhibition [1] of 100, a kinase inhibition [2] of 100 and a kinase inhibition [3] of 100. For the same molecule, the kinase inhibition [4] was 58, the “remaining binding (% of control)” value [5] was 100 and the kinase inhibition [6] was 100. For the same molecule, the “remaining binding (% of control)” value [7] was 46, the kinase inhibition [8] was 84 and the remaining binding at 10 µM [9] was 48%. The “concentration at which an increase of the FLuc signal was observed” value [10] was 1 µM, the “concentration of maximal FLuc signal” value [10] was 10 µM and the kinase inhibition [11] was 91. The “remaining binding (% of control)” value [12] was 79, the kinase inhibition [13] was 100 and the kinase inhibition [14] was 90. The kinase inhibition [15] was 85, the kinase inhibition [16] was 83 and the kinase inhibition [17] was 100. The kinase inhibition [18] was 48, the ATP levels [19] was “unchanged” and the Concentration [20] was 7 µM. The “remaining binding (% of control)” value [21] was 100, the kinase inhibition [22] was 99 and the kinase inhibition [23] was 94. For the same molecule, the kinase inhibition [24] was 100, the kinase inhibition [25] was 100 and the Concentration [26] was 3.1 µM.

From article PMC8371461 (Frontiers in Pharmacology, 2021)
